In patent US9446034B2, “Pyrazolylaminopyridines as inhibitors of FAK” (GlaxoSmithKline LLC, priority 2008, dated 2016):

Columns and labels:
GST-tagged FAK = molecular target: T1, GST-tagged FAK (Homo sapiens, UniProt Q05397); assay: Biochemical assay for FAK activity, Assay 1: GST-FAK, peptide substrate phosphorylation with 33P-ATP; details: 5 μM ATP, 30 min pre-incubation, read-out: Assay 1 FAK TRF PXC50 (converted)
T1 construct: purchased Invitrogen PV3832
Protocol: (§1) Biochemical Assay for FAK Activity
To measure inhibitors of FAK, compounds were first prepared as a 10× stock in 10% DMSO. […] A 6-nM GST-FAK solution was prepared in 1.1× reaction buffer containing 44 mM HEPES, pH=7.2, 11 mM MgCl2, 2.2 mM MnCl2, 1.1 mM DTT and 0.011% Tween-20. Then, 20 μL of the 6 nM GST-FAK solution were pre-incubated with the compounds for 30 min at room temperature. […] The reaction was allowed to proceed for 90 min before being quenched with 40 μL of 1% H3PO4. A portion of the reaction mixture (60 μL) was transferred to a phospho-cellulose filter plate (Millipore; www.millipore.com, MAPHNOB50) and incubated for 20 minutes. The plate was filtrated, washed three times using 150 μL of 0.5% H3PO4 and dried at 50° C. for 30 min. After the addition of 60 μL Microscint-20 to the plate, radioactivity was measured using a TopCount (PerkinElmer; www.PerkinElmer.com).

[1] = molecular target: T2, Full length Human FAK (FLAG-6×His-TEV-huFAK) (Homo sapiens, UniProt Q05397); assay: Biochemical assay for FAK activity, Assay 2: Flag-His-TEV-FAK1, LANCE Ultra ULight peptide phosphorylation; details: Flag-His-TEV-FAK1, 10 μM ATP, 30 min pre-incubation; read-out: Assay 2 FAK H 31284A TRF PXC50 (converted)
T2 construct: Full length Human FAK was expressed using baculovirus in Sf9 cells; made in house; host or cells: baculovirus in Sf9 cells
T2 sequence (Q05397 whole entry): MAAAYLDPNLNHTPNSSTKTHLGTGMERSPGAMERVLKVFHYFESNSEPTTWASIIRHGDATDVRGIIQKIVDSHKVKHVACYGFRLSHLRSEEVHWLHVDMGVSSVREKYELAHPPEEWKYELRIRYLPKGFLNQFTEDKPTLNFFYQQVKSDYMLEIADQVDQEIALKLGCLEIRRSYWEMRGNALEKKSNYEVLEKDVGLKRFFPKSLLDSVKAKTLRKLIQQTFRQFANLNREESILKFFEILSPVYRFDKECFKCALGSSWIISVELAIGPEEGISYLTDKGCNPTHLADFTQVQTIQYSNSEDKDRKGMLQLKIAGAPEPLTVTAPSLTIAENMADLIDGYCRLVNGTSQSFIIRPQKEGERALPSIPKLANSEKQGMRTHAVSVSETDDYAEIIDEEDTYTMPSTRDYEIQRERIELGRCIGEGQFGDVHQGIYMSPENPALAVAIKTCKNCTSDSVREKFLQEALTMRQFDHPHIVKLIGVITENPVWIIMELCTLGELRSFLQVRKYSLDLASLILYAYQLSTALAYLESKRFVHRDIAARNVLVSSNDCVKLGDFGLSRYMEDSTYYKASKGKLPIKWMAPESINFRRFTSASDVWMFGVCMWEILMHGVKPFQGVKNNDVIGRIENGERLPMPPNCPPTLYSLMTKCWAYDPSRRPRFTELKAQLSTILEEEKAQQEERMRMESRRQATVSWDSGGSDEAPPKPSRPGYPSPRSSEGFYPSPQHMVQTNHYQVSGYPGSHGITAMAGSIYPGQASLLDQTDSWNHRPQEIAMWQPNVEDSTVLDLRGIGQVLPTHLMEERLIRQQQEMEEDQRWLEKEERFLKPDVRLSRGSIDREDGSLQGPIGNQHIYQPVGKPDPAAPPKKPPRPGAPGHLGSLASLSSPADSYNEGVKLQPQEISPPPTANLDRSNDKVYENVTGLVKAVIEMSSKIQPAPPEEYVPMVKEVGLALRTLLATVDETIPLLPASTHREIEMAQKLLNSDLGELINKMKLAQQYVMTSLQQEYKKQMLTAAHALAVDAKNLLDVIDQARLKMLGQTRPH
Protocol: as §1
Assay 2: Flag-His-TEV-FAK1 was prepared in-house. Full length Human FAK was expressed using baculovirus in Sf9 cells with N-terminal FLAG-6×His tags followed by a TEV cleavage site (FLAG-6×His-TEV-huFAK). […] To measure inhibitors of FAK, compounds were first prepared as a 100× stock in 100% DMSO. A small portion of each compound solution (50 nL) was added to a black 384-well low-volume microtiter plate (Greiner 784076). A 1.2 nM Flag-His-TEV-FAK1 solution was prepared in 1× reaction buffer containing 40 mM Tris/Tris-HCL, 10 mM MgCl2, 1 mM CHAPS, at a pH of 7.5, with 1 mM DTT added. 2.5 ul of the 1.2 nM Flag-FAK solution was added to the plates and pre-incubated with the compounds for 30 min at room temperature. […] After incubating for 120 minutes at room temperature, the reaction is quenched by adding 5 uL of 20 mM EDTA and 5nMEu-Anti-pTyr antibody in 1× LANCE detection buffer. After a 30 minute incubation at room temperature, the plate is read on a Perkin Elmer Viewlux with a 320-340 nm excitation filter and measuring emission at 615 nm and 665 nm. The ratio of 665 nm/615 nm is used for data normalization.

T1 sequence (Q05397 whole entry): as above

| SMILES | IC50 (GST-tagged FAK) | IC50 [1] |
| --- | --- | --- |
| CCn1nccc1Nc1cc(Nc2cc(F)c(F)cc2C(=O)NC)c(Cl)cn1 [Example 10, 2-({5-Chloro-2-[(1-ethyl-1H-pyrazol-5-yl)amino]-4-pyridinyl}amino)-4,5-difluoro-N-methylbenzamide] | 0.794 nM | 10 nM |
| CCNC(=O)c1ccccc1Nc1cc(Nc2ccnn2CC)ncc1Cl [Example 44, 2-({5-Chloro-2-[(1-ethyl-1H-pyrazol-5-yl)amino]-4-pyridinyl}amino)-N-ethylbenzamide] | 6.31 nM | 63.1 nM |
